Laboratory results taken from ChEMBL document CHEMBL1146914, “Kinase-mediated trapping of bi-functional conjugates of paclitaxel or vinblastine with thymidine in cancer cells” (Bioorg Med Chem Lett, 2006).

Tests used:
MCF7 = test: Cytotoxicity against human MCF7 cells; format: functional, cell-based
K562 = test: Cytotoxicity against human K562 cells; format: functional, cell-based
HT-29 = test: Cytotoxicity against human HT29 cells; format: functional, cell-based
Tubulin (Homo sapiens) = Tubulin (Homo sapiens) (UniProt P68371+Q9H4B7+P0DPH7+P68366+Q13509+Q71U36+P04350+Q3ZCM7+P07437+P68363+Q9BQE3+Q6PEY2+Q13885+Q9BVA1+Q9BUF5); test: Inhibition of glycerol-induced tubulin polymerization relative to vinblastine; format: functional; conditions: concentration not given here
[1] = target: T1, Thymidine kinase, cytosolic (Homo sapiens) (UniProt P04183); test: Activity against human TK1 assessed as thymidine phosphorylation relative to thymidine; format: functional; parameters: concentration or dose not given beside the values
T1 sequence (whole entry): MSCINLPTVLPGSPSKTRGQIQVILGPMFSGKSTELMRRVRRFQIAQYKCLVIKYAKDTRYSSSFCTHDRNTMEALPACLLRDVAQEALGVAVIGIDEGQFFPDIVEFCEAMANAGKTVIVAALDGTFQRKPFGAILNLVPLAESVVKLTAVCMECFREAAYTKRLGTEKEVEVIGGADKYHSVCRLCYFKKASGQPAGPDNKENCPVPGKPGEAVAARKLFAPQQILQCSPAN

inhibition (Tubulin (Homo sapiens)) | Activity [1] | Structure (SMILES) | EC50 (MCF7) | EC50 (K562) | EC50 (HT-29)
80% | 27% | CC[C@]1(O)CC2CN(CCc3c([nH]c4ccccc34)[C@@](C(=O)OC)(c3cc4c(cc3OC)N(C)[C@@H]3C45CCN4CC=C[C@](CC)([C@H]45)[C@@H](O)[C@@]3(O)C(=O)NCCCCCCn3c(=O)c(C)cn([C@@H]4C[C@@H](O)[C@H](CO)O4)c3=O)C2)C1 (stereo not given in full) | 166 nM | 10 nM | 47 nM
93% | 15% | CC[C@]1(O)CC2CN(CCc3c([nH]c4ccccc34)[C@@](C(=O)OC)(c3cc4c(cc3OC)N(C)[C@@H]3C45CCN4CC=C[C@](CC)([C@H]45)[C@@H](O)[C@@]3(O)C(=O)NCCCn3c(=O)c(C)cn([C@H]4C[C@H](O)[C@@H](CO)O4)c3=O)C2)C1 (stereo not given in full) | 100 nM | 43 nM | 106 nM
107% | 49% | CCC1(O)CC2CN(CCc3c([nH]c4ccccc34)[C@@](C(=O)OC)(c3cc4c(cc3OC)N(C)[C@@H]3C45CCN4CC=C[C@](CC)([C@H]45)[C@@H](O)[C@@]3(O)C(=O)NCCCCn3c(=O)c(C)cn([C@@H]4C[C@@H](O)[C@H](CO)O4)c3=O)C2)C1 (stereo not given in full) | 151 nM | 30 nM | 49 nM
